Experiments:
[1] = 308.15 K, 101.33 kPa, Liquid
[2] = relative permittivity at zero frequency (dimensionless); wn = mass fraction of the nth substance listed; conditions: 101 kPa, Liquid, Parallel plate capacitor
[3] = wn = mass fraction of the nth substance listed; conditions: 101 kPa, Liquid; for viscosity: Capillary tube (Ostwald / Ubbelohde) method; for mass density: Vibrating tube method

CCOCCO [2-ethoxyethan-1-ol]
Conditions	mass density [kg/m3]
[1]	924.97

Conditions	viscosity [mPa·s]
[1], Capillary tube (Ostwald / Ubbelohde) method	1.828

CCOCCO [2-ethoxyethan-1-ol] + O
Conditions	mass density, w1 = 0.25 [kg/m3]	mass density, w1 = 0.4 [kg/m3]	mass density, w1 = 0.5 [kg/m3]	relative permittivity at zero frequency, w1 = 0.25	relative permittivity at zero frequency, w1 = 0.4	relative permittivity at zero frequency, w1 = 0.5	viscosity, w1 = 0.25 [mPa·s]	viscosity, w1 = 0.4 [mPa·s]	viscosity, w1 = 0.5 [mPa·s]
[2], 308.15 K	–	–	–	60.13	50.54	44.3	–	–	–
[2], 313.15 K	–	–	–	58.7	49.28	43.03	–	–	–
[2], 318.15 K	–	–	–	57.37	48.14	41.95	–	–	–
[2], 323.15 K	–	–	–	56.11	47.1	40.96	–	–	–
[3], 308.15 K	997.58	997.47	993.61	–	–	–	1.843	1.955	1.923
[3], 313.15 K	992.45	991.01	985.14	–	–	–	1.529	1.702	1.72
[3], 318.15 K	988.07	986.96	980.04	–	–	–	1.274	1.427	1.455
[3], 323.15 K	983.94	983.78	976.1	–	–	–	1.092	1.232	1.276

Source: the NIST ThermoML archive (doi:10.1021/je900725w)
